Measurements from patent US8394792B2, “Heterocyclic derivatives” (C&C Research Laboratories, priority 2008, dated 2013).
pIC50: −log10 of the molar value. Values after ≈ are worked out from the molar mass of the structure shown. Where a name gives a salt, the structure may show the parent alone. Read-outs that look alike come from different tables or passages of the source.

Tests used:
hURAT1 = biological target: T1, hURAT1 (Homo sapiens, UniProt Q96S37); experiment: Test for inhibiting urate reuptake activity via hURAT1 (uric acid transport assay in hURAT1-overexpressed HEK293 cell line); format: cell-based; settings: hURAT1-overexpressed HEK293 cells, [14C]-uric acid uptake, 100 μM uric acid; read-out: IC50 (μM) hURAT, level of uric acid reuptake inhibition
T1 construct: expressed in transfected cells; host or cells: HEK293 (human kidney cell line), transient transfection with Fugene6
T1 sequence (Q96S37 1-553): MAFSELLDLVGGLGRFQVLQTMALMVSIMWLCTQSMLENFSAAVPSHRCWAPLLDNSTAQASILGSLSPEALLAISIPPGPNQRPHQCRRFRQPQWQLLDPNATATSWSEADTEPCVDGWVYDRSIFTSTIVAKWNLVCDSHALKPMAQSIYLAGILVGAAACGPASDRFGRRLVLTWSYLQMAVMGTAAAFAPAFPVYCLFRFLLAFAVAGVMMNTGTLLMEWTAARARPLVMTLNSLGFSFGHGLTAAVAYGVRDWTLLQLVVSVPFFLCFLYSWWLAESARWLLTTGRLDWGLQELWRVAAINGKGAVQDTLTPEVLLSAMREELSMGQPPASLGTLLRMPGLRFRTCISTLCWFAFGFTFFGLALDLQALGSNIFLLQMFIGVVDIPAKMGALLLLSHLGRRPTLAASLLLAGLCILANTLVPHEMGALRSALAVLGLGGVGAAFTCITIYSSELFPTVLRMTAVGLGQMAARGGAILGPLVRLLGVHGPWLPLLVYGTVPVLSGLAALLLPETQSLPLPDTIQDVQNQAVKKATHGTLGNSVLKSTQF
Method: Test for Inhibiting Urate Reuptake Activity Via hURAT1
[hURAT1 Overexpression by Transient Transfection in Human Kidney Cell Line]
A human kidney cell line, HEK293 was incubated by using OptiMEM medium in 100 mm dish at (3*10^6 cells) for 24 hours. In order for the expression of hURAT1, a transfection mixture solution (Fugene6 18 μl:hURAT1 DNA 6 μg=3:1, in 600 μl OptiMEM medium/dish) was prepared and kept for 15 minutes at room temperature. To each dish, 600 μl of the mixture solution was injected and then incubated in 37[…] cell incubator for 24 hours. The hURAT1-overexpressed HEK293 cell line was trypsinized and cells were harvested. Cells were resuspended in medium and seeded at 6*10^5 cells/well and incubated for 24 hours in 24-well plate which was surface-coated with Poly-D-Lysine.
[Uric Acid Transport Assay in hURAT1-Overexpressed HEK293 Cell Line]
For each concentration, the stock sample solution was diluted in PBS (1 μl in 800 μl of PBS) as 1.25 fold concentrated working sample solution to obtain final concentrations of 0.01, 0.1, 1 and 10 μM. The hURAT1-overexpressed cell line was washed with 1 ml of PBS. After washing, PBS was discarded and the sample solution was diluted by 1.25 fold with PBS. Preincubation of cells with 200 μl/well of sample solution made above was conducted for 30 minutes in 37[…] cell incubator. After the incubation, each well was treated with 50 μl of PBS containing 500 μM [^14C]-uric acid (final 100 μM of uric acid/well). Cells were incubated for 2 minutes. The cells were washed twice with 1 ml of PBS.
To measure the uric acid uptake, each well was treated with 150 μl of M-per buffer (PIERCE) and kept in 37° C. cell incubator for 30 minutes to make cell lysates. 150 μl of cell lysates was transferred into test tube and 4 ml of scintillation cocktail was added. CPM value of [^14C]-uric acid absorbed into cells was detected using liquid scintillation counter. IC50 for the inhibition of uric acid uptake by each test sample was analyzed by computational numerical processing.

CYP2C9 = CYP2C9 (Homo sapiens, UniProt P11712); experiment: biochemical
[1] = Test for solubility according to pH; format: physicochemical; settings: 37° C. 2 hours; for solubility at 2 h: thermodynamic from solid
[2] = 37 °C, pH 1.2, simulated gastric fluid, first solution pH about 1.2, 2 mg/mL, read-out: Solubility (μg/mL) pH 1.2
[3] = 37 °C, pH 6.8, aqueous buffer, second solution pH about 6.8, 2 mg/mL, read-out: Solubility (μg/mL) pH 6.8
[4] = pH 1.2, simulated gastric fluid, first solution pH about 1.2, 2 mg/mL, read-out: Solubility (μg/mL) pH 1.2
[5] = pH 6.8, aqueous buffer, second solution pH about 6.8, 2 mg/mL, read-out: Solubility (μg/mL) pH 6.8

Chain of CYP2C9 (P11712 whole entry): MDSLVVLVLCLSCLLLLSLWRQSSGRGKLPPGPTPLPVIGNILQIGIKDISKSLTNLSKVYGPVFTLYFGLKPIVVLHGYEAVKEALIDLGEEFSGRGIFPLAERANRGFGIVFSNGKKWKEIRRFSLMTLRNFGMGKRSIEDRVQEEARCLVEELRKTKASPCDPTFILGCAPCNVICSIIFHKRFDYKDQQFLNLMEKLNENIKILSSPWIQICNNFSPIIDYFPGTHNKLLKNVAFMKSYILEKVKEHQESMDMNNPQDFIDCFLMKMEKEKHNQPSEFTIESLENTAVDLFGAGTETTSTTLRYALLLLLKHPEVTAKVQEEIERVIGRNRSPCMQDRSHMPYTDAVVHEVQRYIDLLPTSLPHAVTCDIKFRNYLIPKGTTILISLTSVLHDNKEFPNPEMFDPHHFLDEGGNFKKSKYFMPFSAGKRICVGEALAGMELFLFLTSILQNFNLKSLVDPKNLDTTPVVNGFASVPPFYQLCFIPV

SMILES | IC50 (hURAT1) [µM] | pIC50 (CYP2C9) | further results
O=C(c1ccc(O)c(Br)c1)N1CCOc2ccncc21 [Compound 11, (3-bromo-4-hydroxy-phenyl)-(2,3-dihydro-pyrido[4,3-b][1,4]oxazin-4-yl)-methanone bromic acid salt] | 0.175 | < 4.22 | 
O=C(c1cc(Br)c(O)c(Br)c1)N1CCOc2ncc(-c3ccccc3)cc21 [Compound 20, (3,5-dibromo-4-hydroxy-phenyl)-(7-phenyl-2,3-dihydro-pyrido[2,3-b][1,4]oxazin-1-yl)-methanone] | 0.034 | 5.28 | 
O=C(c1cc(Br)c(O)c(Br)c1)N1CCOc2cnccc21 [Compound 6, (3,5-dibromo-4-hydroxy-phenyl)-(2,3-dihydro-pyrido[3,4-b][1,4]oxazin-1-yl)-methanone] | 0.0565 | 5.52 | 
O=C(c1ccc(O)c(Br)c1)N1CCOc2ccncc21 [Compound 38, (3-bromo-4-hydroxy-phenyl)-(2,3-dihydro-pyrido[4,3-b][1,4]oxazin-4-yl)-methanone] | 0.0964 | < 4.70 | 
O=S(=O)(c1cc(Cl)c(O)c(Cl)c1)N1CCOc2ccncc21 [Compound 21, 2,6-dichloro-4-(2,3-dihydro-pyrido[4,3-b][1,4]oxazin-4-sulfonyl)-phenol] | 0.954 | 5.95 | 
O=C(c1ccc(O)c(Cl)c1)N1CCOc2ccncc21 [Compound 10, (3-chloro-4-hydroxy-phenyl)-(2,3-dihydro-pyrido[4,3-b][1,4]oxazin-4-yl)-methanone bromic acid salt] | 0.334 | < 4.22 | 
O=C(c1cc(Br)c(O)c(Br)c1)N1CCOc2ccncc21 [Compound 71, (3,5-dibromo-4-hydroxy-phenyl)-(2,3-dihydro-pyrido[4,3-b][1,4]oxazin-4-yl)-methanone sulfuric acid salt] |  | < 4.70 | solubility at 2 h [1, 2]: 2140 µg/mL; Solubility (μg/mL) pH 6.8 ([1]; second solution pH about 6.8, 2 mg/mL): 344.7 μg/mL
O=S(=O)(c1ccc(O)cc1)N1CCOc2ccncc21 [Compound 35-1, 4-(2,3-dihydro-pyrido[4,3-b][1,4]oxazin-4-sulfonyl)-phenol] |  | < 4.70 | 
O=C(c1ccc(O)c(Cl)c1)N1CCOc2cnccc21 [Compound 18, (3-chloro-4-hydroxy-phenyl)-(2,3-dihydro-pyrido[3,4-b][1,4]oxazin-1-yl)-methanone bromic acid salt] |  | 5.01 | 
O=C(c1cc(Br)c([O-])c(Br)c1)N1CCOc2ccncc21.[K+] [Compound 73] |  |  | solubility at 2 h [1, 4]: 1150 µg/mL; solubility at 2 h [1, 5]: 565 µg/mL
O=C(c1cc(Cl)nc(Cl)c1)N1CCOc2ccncc21 [Compound 31, (2,6-dichloro-pyridin-4-yl)-(2,3-dihydro-pyrido[4,3-b][1,4]oxazin-4-yl)-methanone] |  | < 4.70 | solubility at 2 h [1, 2]: 1850 µg/mL (≈ 5.95 mM); solubility at 2 h [1, 3]: 199 µg/mL (≈ 0.641 mM)
O=C(c1ccc(O)c(Cl)c1)N1CCOc2cnccc21 [Compound 34, (3-chloro-4-hydroxy-phenyl)-(2,3-dihydro-pyrido[3,4-b][1,4]oxazin-1-yl)-methanone] |  | 4.71 | 
COc1c(Br)cc(C(=O)N2CCOc3cnccc32)cc1Br [Compound 5, (3,5-dibromo-4-methoxy-phenyl)-(2,3-dihydro-pyrido[3,4-b][1,4]oxazin-1-yl)-methanone] | 0.175 |  | 
O=C(c1ccc(O)nc1)N1CCOc2ccncc21 [Compound 32, (2,3-dihydro-pyrido[4,3-b][1,4]oxazin-4-yl)-(6-hydroxy-pyridin-3-yl)-methanone] |  | < 4.70 | solubility at 2 h [1, 2]: 1960 µg/mL (≈ 7.62 mM); solubility at 2 h [1, 3]: 1470 µg/mL (≈ 5.73 mM)
Cl.O=C(c1cc(Br)c(O)c(Br)c1)N1CCOc2ccncc21 [Compound 33, (3,5-dibromo-4-hydroxy-phenyl)-(2,3-dihydro-pyrido[4,3-b][1,4]oxazin-4-yl)-methanone hydrochloric acid salt] |  |  | solubility at 2 h [1, 4]: 1580 µg/mL; solubility at 2 h [1, 5]: 810 µg/mL

Second part, led by results:

IC50 (hURAT1) [µM] | pIC50 (CYP2C9) | SMILES | further results
0.0078 |  | CC(=O)c1ccc(-c2cnc3c(c2)N(C(=O)c2cc(Br)c(O)c(Br)c2)CCO3)cc1 [Compound 67, 1-{4-[1-(3,5-dibromo-4-hydroxy-benzoyl)-2,3-dihydro-1H-pyrido[2,3-b][1,4]oxazin-7-yl]-phenyl}-ethanone] | 
0.0047 | 5.96 | O=C(c1cc(Br)c(O)c(Br)c1)N1CCOc2ncc(-c3ccccc3C(F)(F)F)cc21 [Compound 46, (3,5-dibromo-4-hydroxy-phenyl)-[7-(2-trifluoromethyl-phenyl)-2,3-dihydro-pyrido[2,3-b][1,4]oxazin-1-yl]-methanone] | 
0.0358 | 5.87 | O=C(c1cc(Br)c(O)c(Br)c1)N1CCOc2ncc(-c3ccc(OC(F)(F)F)cc3)cc21 [Compound 66, (3,5-dibromo-4-hydroxy-phenyl)-[7-(4-trifluoromethoxy-phenyl)-2,3-dihydro-pyrido[2,3-b][1,4]oxazin-1-yl]-methanone] | 
0.0331 | < 4.70 | Cc1cnc2c(c1)N(C(=O)c1ccc(O)c(C(F)(F)F)c1)CCO2 [Compound 69, (4-hydroxy-3-trifluoromethyl-phenyl)-(7-methyl-2,3-dihydro-pyrido[2,3-b][1,4]oxazin-1-yl)-methanone] | 
 | < 4.70 | O=C(c1cc(O)no1)N1CCOc2ccncc21 [Compound 44, (2,3-dihydro-pyrido[4,3-b][1,4]oxazin-4-yl)-(3-hydroxy-isoxazol-5-yl)-methanone] | solubility at 2 h [1, 2]: 1960 µg/mL (≈ 7.93 mM); solubility at 2 h [1, 3]: 2100 µg/mL (≈ 8.48 mM)
 | 4.82 | O=C(c1ccc(O)c(Br)c1)N1CCOc2cnccc21 [Compound 40, (3-bromo-4-hydroxy-phenyl)-(2,3-dihydro-pyrido[3,4-b][1,4]oxazin-1-yl)-methanone] | solubility at 2 h [1, 2]: 1320 µg/mL (≈ 3.93 mM); solubility at 2 h [1, 3]: 473 µg/mL (≈ 1.41 mM)
 | < 5.22 | O=C(CN1CCOc2ccncc21)c1cc(Br)c(O)c(Br)c1 [Compound 54, 1-(3,5-dibromo-4-hydroxy-phenyl)-2-(2,3-dihydro-pyrido[4,3-b][1,4]oxazin-4-yl)-ethanone] | 
 | < 4.70 | O=C(c1cc(O)nc(O)n1)N1CCOc2ccncc21 [Compound 60, (2,3-dihydro-pyrido[4,3-b][1,4]oxazin-4-yl)-(2,6-dihydroxy-pyrimidin-4-yl)-methanone] | solubility at 2 h [1, 2]: 2130 µg/mL (≈ 7.75 mM); solubility at 2 h [1, 3]: 600 µg/mL (≈ 2.19 mM)
 | < 4.70 | COc1cc(C(=O)N2CCOc3ccncc32)on1 [Compound 43, (2,3-dihydro-pyrido[4,3-b][1,4]oxazin-4-yl)-(3-methoxy-isoxazol-5-yl)-methanone] | solubility at 2 h [1, 2]: 1260 µg/mL (≈ 4.82 mM); solubility at 2 h [1, 3]: 1010 µg/mL (≈ 3.86 mM)
 | 4.94 | O=C1CCCN1c1cnc2c(c1)N(C(=O)c1cc(Br)c(O)c(Br)c1)CCO2 [Compound 75, 1-[1-(3,5-dibromo-4-hydroxy-benzoyl)-2,3-dihydro-1H-pyrido[2,3-b][1,4]oxazin-7-yl]-pyrrolidin-2-one] | 
 | < 4.70 | O=C(c1cnc(O)nc1O)N1CCOc2ccncc21 [Compound 59, (2,3-dihydro-pyrido[4,3-b][1,4]oxazin-4-yl)-(2,4-dihydroxy-pyrimidin-5-yl)-methanone] | solubility at 2 h [1, 2]: 2240 µg/mL (≈ 8.18 mM); solubility at 2 h [1, 3]: 676 µg/mL (≈ 2.47 mM)
 | < 4.70 | COc1c(Br)cc(C(=O)N2C(=O)COc3ccncc32)cc1Br [Compound 57, 4-(3,5-dibromo-4-methoxy-benzoyl)-4H-pyrido[4,3-b][1,4]oxazin-3-one] | 
